Earlier results on 3 compounds are cited in patent EP4810022A1, “MICROPARTICLES COMPRISING TIRZEPATIDE OR PHARMACEUTICALLY ACCEPTABLE SALT THEREOF, AND MANUFACTURING METHOD THEREFOR” (Inventage Lab Inc., priority 2024, dated 2025).

The conditions of data set [1]: when taken for one year.
For data set [2] the following is noted: reported.

Take `CCCCCCCCCCC[C@@H](C[C@@H]1OC(=O)[C@H]1CCCCCC)OC(=O)[C@H](CC(C)C)NC=O` [orlistat]: in data set [1], the body weight loss result was “about 4 kg”.
Regarding `Cc1c(C(=O)NN2CCCCC2)nn(-c2ccc(Cl)cc2Cl)c1-c1ccc(Cl)cc1` [rimonabant], the side effects entry in data set [2] is reported as “central nervous system side effects”.
Turning to `CC(C)CC(N(C)C)C1(c2ccc(Cl)cc2)CCC1` (stereo not drawn) [sibutramine], in data set [2], the side effects result was “cardiovascular side effects”.
